The source of these data is patent US20250283073A1 (ORNA THERAPEUTICS, INC., priority 2021, published 2025).

Entries after “also recorded” stand apart in the source; their conditions may differ.

The subject of one test is splenic immune cells. Kind of test: Cre circRNA LNP transfection of splenic immune cells in Ai9 Cre reporter mice (tdTomato). It counts as in vivo. To be noted: 0.5 mg/kg Cre circRNA LNP i.v., 48 hr, named by ionizable lipid, 0.5 mg/kg. As for the experimental part: Circular RNAs encoding Cre recombinase (Cre) are encapsulated into lipid nanoparticles as previously described. Female, 6-8 week old B6.Cg-Gt(ROSA)26Sortm9(CAG-tdTomato)Hze/J (Ai9) mice were dosed with lipid nanoparticles at 0.5 mg/kg RNA intravenously. Fluorescent tdTomato protein was transcribed and translated in Ai9 mice upon Cre recombination, meaning circular RNAs have been delivered to and translated in tdTomato+ cells. After 48 hr, mice were euthanized and the spleens were harvested, processed into a single cell suspension, and stained with various fluorophore-conjugated antibodies for immunophenotyping via flow cytometry.
Ai9 mice (B6.Cg-Gt(ROSA)26Sortm9(CAG-tdTomato)Hze/J, female, 6-8 weeks, n=3 per group) were injected i.v. with 0.5 mg/kg Cre circRNA LNPs or PBS. Ai9 mice transcribe and translate the fluorescent reporter tdTomato upon Cre recombination; meaning cells which are tdTomato+ have successfully been transfected with Cre circRNA. […] Flow cytometry was performed using an Attune Nxt Flow Cytometer (Thermo).

The subject of test [1] is activated primary human T cells (TCLs). Kind of test: IRES screening (Table 28), Gaussia luciferase LNP-oRNA in activated primary human T cells (TCLs). To be noted: protein expression relative to positive control (SEQ ID NO 3282 = 1).
From the text: (§1) Exemplary constructs included a 5′ enhanced intron element, a 5′ enhanced exon element, a putative IRES, a coding element encoding Gaussia Luciferase, a 3′ enhanced exon element, and a 3′ enhanced intron element.
(§2) Purified oRNA was nanoprecipitated with lipids to form LNP-oRNA constructs. LNPs were formulated first by creating empty lipid nanoparticles using a Precision Nanosystems Ignite instrument with a “NextGen” mixing chamber. Ethanol phase contained Lipid 39 from Table 10b, DSPC, cholesterol, and DMG-PEG 2000 (Avanti Polar Lipids, Inc., Alabaster, AL) at a molar ratio of 45:9:44:2 was combined with 50 mM sodium acetate buffer at pH 4.5. A 3:1 aqueous to ethanol mixing ratio was used. The empty LNPs were then dialyzed in 1 L of 1×PBS and exchanged 2 times over 18 hours. […] A 3:1 aqueous to empty lipid nanoparticle mixing ratio was used. The LNPs final ionizable lipid to RNA phosphate ratio was at 6.0.
(§3) Primary human skeletal myotubes (MYOs), primary human hepatocytes (PHHs), and activated primary human T cells (TCLs) were treated with formulated LNP-oRNA in triplicate. Protein expression in supernatant was assessed by luminescence measurements 48 hours following transfection.
(§4) Total luminescent signal was normalized across replicate plates to control for plate-wide differences between replicates due to flash assay readout timing. Plates with positive controls having <2× signal over background were excluded from analysis. Background was subtracted based on empty wells. Each test well replicate was normalized to its respective plate control and then the replicates were averaged.
(§5) Measured numbers are normalized to a control (caprine kobuvirus IRES, SEQ ID NO: 3282) and represented as a fold change.
In test [2] the test system is primary human skeletal myotubes (MYOs). Put plainly: IRES screening (Table 28), Gaussia luciferase LNP-oRNA in primary human skeletal myotubes (MYOs). To be noted: protein expression relative to positive control (SEQ ID NO 3282 = 1).
From the text: as §1, §2, §3, §4, §5
Test [3] relates to primary human hepatocytes (PHHs). Kind of test: IRES screening (Table 28), Gaussia luciferase LNP-oRNA in primary human hepatocytes (PHHs). To be noted: protein expression relative to positive control (SEQ ID NO 3282 = 1).
From the text: as §1, §2, §3, §4, §5

As for `CCCCCCCCC(CCCCCC)C(=O)OCCCCCCN(CCCCCCOC(=O)C(CCCCCC)CCCCCCCC)CCCn1ccnc1C` (stereo not shown) [Lipid 10a-27], in the test on splenic immune cells, the “splenic immune cells expressing tdTomato” value is “significantly higher myeloid and T cell transfection compared with Lipid 93-S14; also recorded: effective at delivering circular RNAs to many splenic immune cell subsets”.

As to `CCCCCCCCC(CCCCCC)C(=O)OCCCCCCN(CCC#N)CCCCCCOC(=O)C(CCCCCC)CCCCCCCC` (stereo not shown) [Lipid 47], the “TCL AVG [Fold Change]” value in test [1] is 0.02259 Fold Change. For the same molecule, the “MYO AVG [Fold Change]” value in test [2] is 0.00246 Fold Change. The “PHH AVG [Fold Change]” value in test [3] was 0.08942 Fold Change.

As to `CCCCCCCCCCC(CCCCCCCC)C(=O)OCCCCCCN(CCCCO)CCCCCCOC(=O)C(CCCCCCCC)CCCCCCCCCC` (stereo not shown) [Lipid 26], the “TCL AVG [Fold Change]” value in test [1] was 0 Fold Change. The “MYO AVG [Fold Change]” value in test [2] is on record as 0.002759 Fold Change. Moreover, in test [3], the “PHH AVG [Fold Change]” value is on record as 0.01252 Fold Change.

`CCCCCCCCC(CCCCCC)C(=O)OCCCCCCN(CCCCCCOC(=O)C(CCCCCC)CCCCCCCC)CC(O)CC` (stereo not shown) [Lipid 40]: in test [1], the “TCL AVG [Fold Change]” value amounted to 0.05108 Fold Change. The “MYO AVG [Fold Change]” value in test [2] is 0.199 Fold Change. Besides, the “PHH AVG [Fold Change]” value in test [3] is listed as 0.2391 Fold Change.

Consider `CCCCCCCCC(CCCCCC)C(=O)OCCCCCCN(CCCCCCOC(=O)C(CCCCCC)CCCCCCCC)CCCC(=O)OCC` (stereo not shown) [Lipid 34], for which, in test [1], the “TCL AVG [Fold Change]” value amounted to 0.2638 Fold Change. Besides, the “MYO AVG [Fold Change]” value in test [2] came out at 0.2168 Fold Change. Further, the “PHH AVG [Fold Change]” value in test [3] stood at 0.4644 Fold Change.

Consider `CCCCCCCCCCCCC(CCCCCCCCCC)C(=O)OCCCCCCN(CCCCO)CCCCCCOC(=O)C(CCCCCCCCCC)CCCCCCCCCCCC` (stereo not shown) [Lipid 27], for which, in test [1], the “TCL AVG [Fold Change]” value was determined as 0.02442 Fold Change. The “MYO AVG [Fold Change]” value in test [2] came to 0.01866 Fold Change. In addition, the “PHH AVG [Fold Change]” value in test [3] was 0.09892 Fold Change.

`CCCCCCCCC(CCCCCC)COC(=O)CCCCCN(CCCCCC(=O)OCC(CCCCCC)CCCCCCCC)CCCC(=O)OCC` (stereo not shown) [Lipid 39]: the “TCL AVG [Fold Change]” value in test [1] is listed as 0.003256 Fold Change. Moreover, the “MYO AVG [Fold Change]” value in test [2] is 0.0002919 Fold Change. Besides, in test [3], the “PHH AVG [Fold Change]” value was 0.003901 Fold Change.

For `CCCCC(CC)C(=O)OCCCCCCCCCN(CCCO)CCCCCCCCCOC(=O)C(CC)CCCC` (stereo not shown) [Lipid 43], the “TCL AVG [Fold Change]” value in test [1] came out at 0.2866 Fold Change. For the same molecule, the “MYO AVG [Fold Change]” value in test [2] is recorded as 0.11 Fold Change. In addition, in test [3], the “PHH AVG [Fold Change]” value came out at 0.456 Fold Change.

As for `CCCCCCCCCCC(CCCCCCCC)C(=O)OCCCCCCN(CCCO)CCCCCCOC(=O)C(CCCCCCCC)CCCCCCCCCC` (stereo not shown) [Lipid 37], in test [1], the “TCL AVG [Fold Change]” value is reported as 0.0237 Fold Change. Moreover, the “MYO AVG [Fold Change]” value in test [2] was 0.03859 Fold Change. Moreover, the “PHH AVG [Fold Change]” value in test [3] is 0.2564 Fold Change.

`CCCCCCC(CCCC)C(=O)OCCCCCCCCCN(CCCCO)CCCCCCCCCOC(=O)C(CCCC)CCCCCC` (stereo not shown) [Lipid 25]: the “TCL AVG [Fold Change]” value in test [1] turned out to be 0.452 Fold Change. Further, the “MYO AVG [Fold Change]” value in test [2] came to 0.0738 Fold Change. Further, in test [3], the “PHH AVG [Fold Change]” value came to 0.1559 Fold Change.

For `CCCCCCCCC(CCCCCC)C(=O)OCCCCCCN(CCCCCCOC(=O)C(CCCCCC)CCCCCCCC)CCCC(=O)OCC` (stereo not shown) [Lipid 48], the “TCL AVG [Fold Change]” value in test [1] is given as 0.002803 Fold Change. In test [2], the “MYO AVG [Fold Change]” value is on record as 0.1303 Fold Change. In test [3], the “PHH AVG [Fold Change]” value is on record as 0.4247 Fold Change.

As for `CCCCCCC(CCCC)C(=O)OCCCCCCN(CCCCO)CCCCCCOC(=O)C(CCCC)CCCCCC` (stereo not shown) [Lipid 42], in test [1], the “TCL AVG [Fold Change]” value is on record as 0.09322 Fold Change. In addition, the “MYO AVG [Fold Change]” value in test [2] was determined as 0.07198 Fold Change. Further, in test [3], the “PHH AVG [Fold Change]” value stood at 0.3425 Fold Change.

For the molecule `CCCCCCC(CCCC)C(=O)OCCCCCCN(CCO)CCCCCCOC(=O)C(CCCC)CCCCCC` (stereo not shown) [Lipid 29], in test [1], the “TCL AVG [Fold Change]” value was found to be 0.01096 Fold Change. In test [2], the “MYO AVG [Fold Change]” value was 0 Fold Change. In addition, the “PHH AVG [Fold Change]” value in test [3] is reported as 0.008274 Fold Change.

With `CCCCCCCCCCCCCCCC(O)C(CO)N(CCCCCCOC(=O)C(CCCCCC)CCCCCCCC)CCCCCCOC(=O)C(CCCCCC)CCCCCCCC` (stereo not shown) [Lipid 32], the “TCL AVG [Fold Change]” value in test [1] amounted to 0.02974 Fold Change. In addition, the “MYO AVG [Fold Change]” value in test [2] stood at 0.2163 Fold Change. Besides, the “PHH AVG [Fold Change]” value in test [3] was 0.3276 Fold Change.

On to `CCCCCCCCC(CCCCCC)COC(=O)CCCCCCCN(CCO)CCCCCCCC(=O)OCC(CCCCCC)CCCCCCCC` (stereo not shown) [Lipid 46], for which, in test [1], the “TCL AVG [Fold Change]” value is reported as 0.2472 Fold Change. The “MYO AVG [Fold Change]” value in test [2] came out at 0.2249 Fold Change. Further, in test [3], the “PHH AVG [Fold Change]” value came to 0.503 Fold Change.
